Experimental data reported in US9770446B2, “Piperidine urea derivatives” (MERCK PATENT GMBH, priority 2013, dated 2017).

Assays:
Format in all cases: biochemical
[1] = target: T1, GST-tagged Tankyrase-1 (1023-1327 aa) (Homo sapiens, UniProt O95271); test: Tankyrase 1 autoparsylation HTRF enzyme assay; settings: read-out: IC50 TNKS1 enzyme assay
T1 construct: GST-tagged Tankyrase-1 (1023-1327 aa)
Experimental: Biochemical activity testing of Tankyrase 1 and 2: Autoparsylation assay
The autoparsylation assay is run in two steps: the enzymatic reaction in which GST-tagged Tankyrase-1, resp Tankyrase-2 transferred biotinylated ADP-ribose to itself from biotinylated NAD as co-substrate and the detection reaction where a time resolved FRET between cryptate labelled anti-GST bound to the GST tag of the enzyme and Xlent® labelled-streptavidin bound the biotin-parsylation residue is analysed. The autoparsylation activity was detectable directly via the increase in HTRF signal.
The autoparsylation assay is performed as 384-well HTRF® (Cisbio, Codolet, France) assay format in Greiner low volume nb 384-well microtiter plates and is used for high throughput screen. 250 nM GST-tagged Tankyrase-1 (1023-1327 aa), respectively about 250 nM GST-tagged Tankyrase-2 (873-1166 aa) and 5 μM bio-NAD (Biolog, Life science Inst., Bremen, Germany) as co-substrate are incubated in a total volume of 5 μl (50 mM HEPES, 4 mM Mg-chloride, 0.05% Pluronic F-68, 1.4 mM DTT, 0.5% DMSO, pH 7.7) in the absence or presence of the test compound (10 dilution concentrations) for 90 min at 30° C. The reaction is stopped by the addition of 1 μl 50 mM EDTA solution. 2 μl of the detection solution (1.6 μM SA-Xlent® (Cisbio, Codolet, France), 7.4 nM Anti-GST-K® (Eu-labelled anti-GST, Cisbio, Codolet, France) in 50 mM HEPES, 800 mM KF, 0.1% BSA, 20 mM EDTA, 0.1% CHAPS, pH 7.0) are added. After 1 h incubation at room temperature the HTRF is measured with an Envision multimode reader (Perkin Elmer LAS Germany GmbH) at excitation wavelength 340 nm (laser mode) and emission wavelengths 615 nm and 665 nm. The ratio of the emission signals is determined. The full value used is the inhibitor-free reaction. The pharmacological zero value used is XAV-939 (Tocris) in a final concentration of 5 μM. The inhibitory values (IC50) are determined using either the program Symyx Assay Explorer® or Condosseo® from GeneData.

[2] = target: T2, GST-tagged Tnks-1 (1023-1327 aa) (Homo sapiens, UniProt O95271); test: TNKS1 activity ELISA (autoparsylation assay)
T2 construct: GST-tagged Tnks-1 (1023-1327 aa, prepared in-house); made in house
T2 sequence (O95271 1023-1327): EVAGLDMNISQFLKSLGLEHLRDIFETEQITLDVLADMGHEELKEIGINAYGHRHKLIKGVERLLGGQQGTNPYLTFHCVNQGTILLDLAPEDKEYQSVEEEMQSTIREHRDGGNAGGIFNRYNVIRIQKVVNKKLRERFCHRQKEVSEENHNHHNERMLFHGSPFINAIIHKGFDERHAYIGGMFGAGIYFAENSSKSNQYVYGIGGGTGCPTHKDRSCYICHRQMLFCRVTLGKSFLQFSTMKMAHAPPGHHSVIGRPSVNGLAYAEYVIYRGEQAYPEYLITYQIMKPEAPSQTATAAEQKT
Summary of the method: (§1)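 Each GST-tagged enzyme (20 ng/well) was captured overnight at 4 °C on glutathione plates, then auto-ADP-ribosylated with 10 μM biotin-NAD for 1 h at 30 °C, pH 7.7, 0.5% DMSO, compound at 10 concentrations. Streptavidin-HRP chemiluminescence measured the signal. IC50 relative to inhibitor-free reaction, with 5 μM XAV-939 defining zero.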

[3] = target: T3, GST-tagged Tnks-2 (873-1166 aa) (Homo sapiens, UniProt Q9H2K2); test: TNKS2 activity ELISA (autoparsylation assay)
T3 construct: GST-tagged Tnks-2 (873-1166 aa, prepared in-house); made in house
T3 sequence (Q9H2K2 873-1166): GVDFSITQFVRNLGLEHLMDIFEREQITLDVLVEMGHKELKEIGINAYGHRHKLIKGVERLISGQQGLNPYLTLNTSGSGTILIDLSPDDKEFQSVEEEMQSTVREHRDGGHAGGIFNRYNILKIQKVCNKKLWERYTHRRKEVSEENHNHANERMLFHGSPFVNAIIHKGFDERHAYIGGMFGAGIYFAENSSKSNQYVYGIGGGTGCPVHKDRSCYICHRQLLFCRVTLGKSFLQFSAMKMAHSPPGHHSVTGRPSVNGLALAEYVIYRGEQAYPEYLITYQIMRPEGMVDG
Summary of the method: as §1

T1 sequence (O95271 1023-1327): as the sequence (O95271 1023-1327) above

Row | Structure (SMILES) | IC50 [1] [nM] | IC50 [2] [nM] | IC50 [3] [nM]
1 | Cc1cccc(N(C)C(=O)N2CCC(C(=O)c3ccccc3)CC2)c1 [Compound A1, 4-benzoyl-piperidine-1-carboxylic acid methyl-m-tolyl-amide] | 300 to 3000 | < 300 | < 300
2 | Cc1ccc(N(C)C(=O)N2CCC(C(=O)c3ccccc3)CC2)cc1 [Compound A2, 4-benzoyl-piperidine-1-carboxylic acid methyl-p-tolyl-amide] | 300 to 3000 | < 300 | < 300
3 | COc1ccc(N(C)C(=O)N2CCC(C(=O)c3ccccc3)CC2)cc1 [Compound A4, 4-benzoyl-piperidine-1-carboxylic acid (4-methoxy-phenyl)-methyl-amide] | 300 to 3000 | < 300 | < 300
4 | COc1ccc(N(C)C(=O)N2CCC(C(=O)c3ccc(C)cc3)CC2)cc1 [Compound A5, 4-(4-methyl-benzoyl)-piperidine-1-carboxylic acid (4-methoxy-phenyl)-methylamide] | < 300 | < 300 | < 300
5 | COc1ccc(C(=O)C2CCN(C(=O)N(C)c3ccc(OC)cc3)CC2)cc1 [Compound A6, 4-(4-methoxy-benzoyl)-piperidine-1-carboxylic acid (4-methoxy-phenyl)methyl-amide] | < 300 | < 300 | < 300
6 | COc1ccc(N(C)C(=O)N2CCC(C(=O)c3cccc(F)c3)CC2)cc1 [Compound A7, 4-(3-fluoro-benzoyl)-piperidine-1-carboxylic acid (4-methoxy-phenyl)-methylamide] | 300 to 3000 | < 300 | < 300
7 | COc1ccc(N(C)C(=O)N2CCC(C(=O)c3ccc(F)cc3)CC2)cc1 [Compound A8, 4-(4-fluoro-benzoyl)-piperidine-1-carboxylic acid (4-methoxy-phenyl)-methylamide] | 300 to 3000 | < 300 | < 300
8 | CN(C(=O)N1CCC(C(=O)c2ccccc2)CC1)c1ccc(F)cc1 [Compound A13, 4-benzoyl-piperidine-1-carboxylic acid (4-fluoro-phenyl)-methyl-amide] | 300 to 3000 | < 300 | < 300
9 | CCN(C(=O)N1CCC(C(=O)c2ccccc2)CC1)c1ccc(OC)cc1 [Compound A14, 4-benzoyl-piperidine-1-carboxylic acid ethyl-(4-methoxy-phenyl)-amide] | < 300 | < 300 | < 300
10 | COc1ccc(N(CCO)C(=O)N2CCC(C(=O)c3ccccc3)CC2)cc1 [Compound A15, 4-benzoyl-piperidine-1-carboxylic acid (2-hydroxy-ethyl)-(4-methoxy-phenyl)amide] | 300 to 3000 | < 300 | < 300
11 | O=C(c1ccccc1)C1CCN(C(=O)N2CCc3ccccc32)CC1 [Compound A16, (4-benzoyl-piperidin-1-yl)-(2,3-dihydro-indol-1-yl)-methanone] | 300 to 3000 | < 300 | < 300
12 | Cc1ccc(C(=O)C2CCN(C(=O)N3CCc4ccccc43)CC2)cc1 [Compound A17, (2,3-dihydro-indol-1-yl)-[4-(4-methyl-benzoyl)-piperidin-1-yl]-methanone] | 300 to 3000 | < 300 | < 300
13 | COc1ccc(C(=O)C2CCN(C(=O)N3CCc4ccccc43)CC2)cc1 [Compound A18, (2,3-dihydro-indol-1-yl)-[4-(4-methoxy-benzoyl)-piperidin-1-yl]-methanone] | 300 to 3000 | < 300 | < 300
14 | CCN(C(=O)N1CCC(C(=O)c2ccc(OC)c(C)c2)CC1)c1ccc(OC)cc1 [Compound A24, 4-(4-methoxy-3-methyl-benzoyl)-piperidine-1-carboxylic acid ethyl-(4-methoxy-phenyl)-amide] | < 300 | < 300 | < 300
15 | COc1ccc(N(C)C(=O)N2CCC(C(=O)c3cccc(C)c3)CC2)cc1 [Compound A25, 4-(3-methyl-benzoyl)-piperidine-1-carboxylic acid (4-methoxy-phenyl)methyl-amide] | < 300 | < 300 | < 300
16 | CCN(C(=O)N1CCC(C(=O)c2cccc(C)c2)CC1)c1ccc(OC)cc1 [Compound A26, 4-(3-methyl-benzoyl)-piperidine-1-carboxylic acid ethyl-(4-methoxy-phenyl)amide] | < 300 | < 300 | < 300
17 | COc1ccc(N(C)C(=O)N2CCC(C(=O)c3cccc(OC)c3)CC2)cc1 [Compound A27, 4-(3-methoxy-benzoyl)-piperidine-1-carboxylic acid (4-methoxy-phenyl)methyl-amide] | < 300 | < 300 | < 300
18 | CCN(C(=O)N1CCC(C(=O)c2cccc(OC)c2)CC1)c1ccc(OC)cc1 [Compound A28, 4-(3-methoxy-benzoyl)-piperidine-1-carboxylic acid ethyl-(4-methoxy-phenyl)amide] | < 300 | < 300 | < 300
19 | COc1ccc(N(C)C(=O)N2CCC(C(=O)c3ccc(OC)c(F)c3)CC2)cc1 [Compound A29, 4-(3-fluoro-4-methoxy-benzoyl)-piperidine-1-carboxylic acid (4-methoxy-phenyl)-methyl-amide] |  | < 300 | < 300
20 | CN(C(=O)N1CCC(C(=O)c2ccc(NS(C)(=O)=O)cc2)CC1)c1ccccc1 [Compound A38, 4-(4-methanesulfonylamino-benzoyl)-piperidine-1-carboxylic acid methyl-phenyl-amide] | < 300 | < 300 | < 300
21 | CCOC(=O)CN(C(=O)N1CCC(C(=O)c2ccc(OC)cc2)CC1)c1ccccc1 [Compound A40, {[4-(4-methoxy-benzoyl)-piperidine-1-carbonyl]-phenyl-amino}-acetic acid ethyl ester] | < 300 | < 300 | < 300
